Results as given in patent US11124554B2, “Modified ligand-gated ion channels and methods of use” (Howard Hughes Medical Institute, priority 2016, dated 2021).
Read-outs that look alike come from different tables or passages of the source.

Experiments:
[1] = target: T1, α7^L131G,Y217F-GlyR (Homo sapiens, UniProt P36544, L131G/Y217F); assay: Agonist potency at chimeric channel (Table 9); format: cell-based
T1 construct: expressed in transfected cells

[2] = target: T2, α7GlyR Q79G Y115F G175K K322L (Homo sapiens, UniProt P36544, G175K/Q79G/Y115F); assay: Agonist potency at chimeric channel; format: cell-based
T2 construct: expressed in transfected cells
T2 sequence (P36544 with tags, fused parts or gaps Q79G/Y115F/G175K): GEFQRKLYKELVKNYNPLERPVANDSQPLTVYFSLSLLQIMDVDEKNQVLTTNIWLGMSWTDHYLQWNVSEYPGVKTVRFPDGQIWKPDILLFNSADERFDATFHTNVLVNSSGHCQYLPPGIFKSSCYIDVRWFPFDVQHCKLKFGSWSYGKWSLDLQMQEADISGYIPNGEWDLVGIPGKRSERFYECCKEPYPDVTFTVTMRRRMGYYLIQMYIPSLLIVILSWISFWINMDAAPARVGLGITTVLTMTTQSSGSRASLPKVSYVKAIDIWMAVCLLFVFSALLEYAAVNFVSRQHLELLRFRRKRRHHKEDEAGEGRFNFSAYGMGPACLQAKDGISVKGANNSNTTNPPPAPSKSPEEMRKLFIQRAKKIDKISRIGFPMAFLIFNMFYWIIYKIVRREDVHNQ

[3] = target: T3, α7^Q79G,G175K-GlyR (Homo sapiens, UniProt P36544, G175K/Q79G); assay: Agonist potency at chimeric channel; format: cell-based
T3 construct: expressed in transfected cells
T3 sequence (P36544 with tags, fused parts or gaps Q79G/G175K): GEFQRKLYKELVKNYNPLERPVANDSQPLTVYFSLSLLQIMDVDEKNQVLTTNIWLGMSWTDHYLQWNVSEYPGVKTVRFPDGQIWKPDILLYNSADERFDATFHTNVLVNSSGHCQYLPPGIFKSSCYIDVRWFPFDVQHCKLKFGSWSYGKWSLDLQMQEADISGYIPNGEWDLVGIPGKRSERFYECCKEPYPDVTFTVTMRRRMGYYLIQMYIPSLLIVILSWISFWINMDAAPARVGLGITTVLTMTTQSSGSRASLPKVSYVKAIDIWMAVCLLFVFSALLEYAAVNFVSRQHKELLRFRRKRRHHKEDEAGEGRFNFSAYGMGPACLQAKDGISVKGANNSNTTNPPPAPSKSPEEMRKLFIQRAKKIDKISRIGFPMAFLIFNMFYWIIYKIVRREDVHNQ

[4] = target: T4, α7^G175K,Y210F-GlyR (Homo sapiens, UniProt P36544, G175K/Y210F); assay: Agonist potency at chimeric channel; format: cell-based
T4 construct: expressed in transfected cells
T4 sequence (P36544 with tags, fused parts or gaps G175K/Y210F): as the sequence (P36544 with tags, fused parts or gaps Q79G/G175K) above, with G57Q, Y188F counted along it

[5] = target: T5, α7^L131G-5HT3 HC (Homo sapiens, UniProt P36544, L131G, form not given); assay: Agonist potency at chimeric channel (Table 9); format: cell-based; settings: read-out: Agonist potency
T5 construct: rows headed: Agonist potency; other: α75HT3 L131G HC; α75HT3 L131G HC; fused on or other part: 5-HT3A receptor ion pore domain at the C-terminus
T5 sequence (P36544 23-224 L131G limits assumed, form open): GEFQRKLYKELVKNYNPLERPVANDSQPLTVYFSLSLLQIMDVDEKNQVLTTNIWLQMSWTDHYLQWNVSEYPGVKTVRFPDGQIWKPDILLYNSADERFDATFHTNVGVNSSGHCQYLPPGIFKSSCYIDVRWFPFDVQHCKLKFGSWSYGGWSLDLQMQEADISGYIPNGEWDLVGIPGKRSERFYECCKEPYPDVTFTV

[6] = target: T6, α7GlyR Q79G Y115F G175K Y210F (Homo sapiens, UniProt P36544, G175K/Q79G/Y115F/Y210F); assay: Agonist potency at chimeric channel; format: cell-based
T6 construct: expressed in transfected cells
T6 sequence (P36544 with tags, fused parts or gaps Q79G/Y115F/G175K/Y210F): as the sequence (P36544 with tags, fused parts or gaps Q79G/G175K) above, with Y93F, Y188F counted along it

[7] = target: T7, α7^L131V-GlyR (Homo sapiens, UniProt P36544, L131V); assay: Agonist potency at chimeric channel (Table 9); format: cell-based
T7 construct: expressed in transfected cells
T7 sequence (P36544 with tags, fused parts or gaps L131V): as the sequence (P36544 with tags, fused parts or gaps Q79G/G175K) above, with G57Q, L109V, K153G counted along it

[8] = target: T8, α7^Q79G-GlyR (Homo sapiens, UniProt P36544, Q79G); assay: Agonist potency (EC50), HEK cells expressing chimeric channel; format: cell-based
T8 construct: expressed in transfected cells; host or cells: HEK cells
T8 sequence (P36544 with tags, fused parts or gaps Q79G): as the sequence (P36544 with tags, fused parts or gaps Q79G/G175K) above, with K153G counted along it

[9] = target: T9, α7^Q79S-5HT3 (Homo sapiens, UniProt P36544, M226I/Q79S/T225I); assay: as above; format: cell-based, human α7 nAChR LBD, murine 5HT3 IPD; settings: read-out: Mean EC50, α7^Q79S-5HT3
T9 construct: expressed in transfected cells; host or cells: HEK cells
T9 sequence (P36544 with tags, fused parts or gaps Q79S/T225I/M226I): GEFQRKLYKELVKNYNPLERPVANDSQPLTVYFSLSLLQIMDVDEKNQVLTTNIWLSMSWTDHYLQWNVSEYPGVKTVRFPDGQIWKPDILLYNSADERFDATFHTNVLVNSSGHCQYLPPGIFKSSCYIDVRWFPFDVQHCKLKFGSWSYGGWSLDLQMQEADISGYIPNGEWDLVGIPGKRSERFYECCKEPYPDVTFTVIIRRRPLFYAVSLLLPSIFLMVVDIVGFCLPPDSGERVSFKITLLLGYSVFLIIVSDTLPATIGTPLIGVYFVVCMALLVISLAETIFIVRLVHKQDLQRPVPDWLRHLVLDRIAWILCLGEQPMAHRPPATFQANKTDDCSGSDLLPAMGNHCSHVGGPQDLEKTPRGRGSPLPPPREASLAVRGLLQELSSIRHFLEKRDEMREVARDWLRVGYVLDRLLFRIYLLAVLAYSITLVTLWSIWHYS

[10] = target: T10, α7GlyR L131G D219A (Homo sapiens, UniProt P36544, D219A/L131G); assay: Agonist potency at chimeric channel (Table 9); format: cell-based
T10 construct: expressed in transfected cells
T10 sequence (P36544 with tags, fused parts or gaps L131G/D219A): as the sequence (P36544 with tags, fused parts or gaps Q79G/G175K) above, with G57Q, L109G, K153G, D197A counted along it

[11] = target: T11, α7GlyR R27D E41R Q79G Y115F (Homo sapiens, UniProt P36544, E41R/Q79G/R27D/Y115F); assay: Agonist potency at chimeric channel (Table 7); format: cell-based
T11 construct: expressed in transfected cells
T11 sequence (P36544 with tags, fused parts or gaps R27D/E41R/Q79G/Y115F): as the sequence (P36544 with tags, fused parts or gaps Q79G/G175K) above, with R5D, E19R, Y93F, K153G counted along it

[12] = target: T12, α7^Q79A-5HT3 (Homo sapiens, UniProt P36544, M226I/Q79A/T225I); assay: Agonist potency (EC50), HEK cells expressing chimeric channel; format: cell-based, human α7 nAChR LBD, murine 5HT3 IPD; settings: read-out: Mean EC50, α7^Q79A-5HT3
T12 construct: expressed in transfected cells; host or cells: HEK cells
T12 sequence (P36544 with tags, fused parts or gaps Q79A/T225I/M226I): as the sequence (P36544 with tags, fused parts or gaps Q79S/T225I/M226I) above, with S57A counted along it

[13] = target: T13, α7^L131M-GlyR (Homo sapiens, UniProt P36544, L131M); assay: Agonist potency at chimeric channel (Table 9); format: cell-based
T13 construct: expressed in transfected cells
T13 sequence (P36544 with tags, fused parts or gaps L131M): as the sequence (P36544 with tags, fused parts or gaps Q79G/G175K) above, with G57Q, L109M, K153G counted along it

[14] = target: T14, α7^G175K-GlyR (Homo sapiens, UniProt P36544, G175K); assay: Agonist potency at chimeric channel; format: cell-based
T14 construct: expressed in transfected cells
T14 sequence (P36544 with tags, fused parts or gaps G175K): as the sequence (P36544 with tags, fused parts or gaps Q79G/G175K) above, with G57Q counted along it

[15] = target: T15, α7^Q79S-GlyR (Homo sapiens, UniProt P36544, Q79S); assay: Agonist potency (EC50), HEK cells expressing chimeric channel; format: cell-based
T15 construct: expressed in transfected cells; host or cells: HEK cells
T15 sequence (P36544 with tags, fused parts or gaps Q79S): as the sequence (P36544 with tags, fused parts or gaps Q79G/G175K) above, with G57S, K153G counted along it

[16] = target: T16, α7^Q79G,Y115F,G175K-GlyR (Homo sapiens, UniProt P36544, G175K/Q79G/Y115F); assay: Agonist potency at chimeric channel; format: cell-based
T16 construct: expressed in transfected cells
T16 sequence (P36544 with tags, fused parts or gaps Q79G/Y115F/G175K): as the sequence (P36544 with tags, fused parts or gaps Q79G/G175K) above, with Y93F counted along it

[17] = target: T17, α7^Q79G,Q139L,G175K-GlyR (Homo sapiens, UniProt P36544, G175K/Q139L/Q79G); assay: Agonist potency at chimeric channel; format: cell-based
T17 construct: expressed in transfected cells
T17 sequence (P36544 with tags, fused parts or gaps Q79G/Q139L/G175K): as the sequence (P36544 with tags, fused parts or gaps Q79G/G175K) above, with Q117L counted along it

[18] = target: T18, α7^W77F,G175K,Y210F-GlyR (Homo sapiens, UniProt P36544, G175K/W77F/Y210F); assay: Agonist potency at chimeric channel; format: cell-based
T18 construct: expressed in transfected cells
T18 sequence (P36544 with tags, fused parts or gaps W77F/G175K/Y210F): as the sequence (P36544 with tags, fused parts or gaps Q79G/G175K) above, with W55F, G57Q, Y188F counted along it

[19] = target: T19, α7^L131G-GlyR (Homo sapiens, UniProt P36544, L131G); assay: Agonist potency at chimeric channel (Table 9); format: cell-based
T19 construct: expressed in transfected cells
T19 sequence (P36544 with tags, fused parts or gaps L131G): as the sequence (P36544 with tags, fused parts or gaps Q79G/G175K) above, with G57Q, L109G, K153G counted along it

[20] = target: T20, α7^L131A-GlyR (Homo sapiens, UniProt P36544, L131A); assay: Agonist potency at chimeric channel (Table 9); format: cell-based
T20 construct: expressed in transfected cells
T20 sequence (P36544 with tags, fused parts or gaps L131A): as the sequence (P36544 with tags, fused parts or gaps Q79G/G175K) above, with G57Q, L109A, K153G counted along it

[21] = target: T21, α7^W77F,Q79G,G175K-GlyR (Homo sapiens, UniProt P36544, G175K/Q79G/W77F); assay: Agonist potency at chimeric channel; format: cell-based
T21 construct: expressed in transfected cells
T21 sequence (P36544 with tags, fused parts or gaps W77F/Q79G/G175K): as the sequence (P36544 with tags, fused parts or gaps Q79G/G175K) above, with W55F counted along it

[22] = target: T22, α7^L131G,Q139L-GlyR (Homo sapiens, UniProt P36544, L131G/Q139L); assay: Agonist potency at chimeric channel (Table 9); format: cell-based
T22 construct: expressed in transfected cells
T22 sequence (P36544 with tags, fused parts or gaps L131G/Q139L): as the sequence (P36544 with tags, fused parts or gaps Q79G/G175K) above, with G57Q, L109G, Q117L, K153G counted along it

[23] = target: T23, α7^Q79S,L131G-GlyR (Homo sapiens, UniProt P36544, L131G/Q79S); assay: Agonist potency at chimeric channel (Table 9); format: cell-based
T23 construct: expressed in transfected cells
T23 sequence (P36544 with tags, fused parts or gaps Q79S/L131G): as the sequence (P36544 with tags, fused parts or gaps Q79G/G175K) above, with G57S, L109G, K153G counted along it

[24] = target: T24, α7-5HT3 (Homo sapiens, UniProt P36544, M226I/T225I); assay: Agonist potency (EC50), HEK cells expressing chimeric channel; format: cell-based, human α7 nAChR LBD, murine 5HT3 IPD
T24 construct: expressed in transfected cells; host or cells: HEK cells
T24 sequence (P36544 with tags, fused parts or gaps T225I/M226I): as the sequence (P36544 with tags, fused parts or gaps Q79S/T225I/M226I) above, with S57Q counted along it

[25] = target: T25, α7^L131Q-GlyR (Homo sapiens, UniProt P36544, L131Q); assay: Agonist potency at chimeric channel (Table 9); format: cell-based
T25 construct: expressed in transfected cells
T25 sequence (P36544 with tags, fused parts or gaps L131Q): as the sequence (P36544 with tags, fused parts or gaps Q79G/G175K) above, with G57Q, L109Q, K153G counted along it

[26] = target: T26, α7^L141F,Y115F,G175K-GlyR (Homo sapiens, UniProt P36544, G175K/L141F/Y115F); assay: Agonist potency at chimeric channel; format: cell-based
T26 construct: expressed in transfected cells
T26 sequence (P36544 with tags, fused parts or gaps Y115F/L141F/G175K): as the sequence (P36544 with tags, fused parts or gaps Q79G/G175K) above, with G57Q, Y93F, L119F counted along it

[27] = test system: α7GlyR chimeric channels with G175K and A298G mutations; format: cell-based, human
[28] = target: T27, α7^Y115F,G175K-GlyR (Homo sapiens, UniProt P36544, G175K/Y115F); assay: Agonist potency at chimeric channel; format: cell-based
T27 construct: expressed in transfected cells
T27 sequence (P36544 with tags, fused parts or gaps Y115F/G175K): as the sequence (P36544 with tags, fused parts or gaps Q79G/G175K) above, with G57Q, Y93F counted along it

[29] = read-out: Agonist potency; α7GlyR Q79G A298G G175K Y115F
[30] = read-out: Agonist potency; α7GlyR Q79G A298G P2161
[31] = read-out: Agonist potency; α7GlyR Q79G A298G Y115F K395 K396A
[32] = read-out: Agonist potency; α7GlyR Q79G G175K A298G
[33] = read-out: Agonist potency; α7GlyR Q79G W77F A298G

T1 sequence (P36544 with tags, fused parts or gaps L131G/Y217F): as the sequence (P36544 with tags, fused parts or gaps Q79G/G175K) above, with G57Q, L109G, K153G, Y195F counted along it

Clc1ccc(C2CC3CCC2N3)cn1 (stereo not drawn) [Epibatidine]
EC50 [1]: 15 nM
EC50 [2]: 270 nM
EC50 [3]: 37 nM
EC50 [4]: 650 nM
EC50 ([5]; α75HT3 L131G HC): 9 nM
EC50 [6]: > 10000 nM
EC50 [7]: 210 nM
EC50 [8]: 69 nM
EC50 ([9]; HEK cells, Table 1): 44 nM
EC50 [10]: 160 nM
EC50 [11]: 267 nM
EC50 ([12]; HEK cells, Table 1): 67 nM
EC50 [13]: 42 nM
EC50 [14]: 5 nM
EC50 [15]: 24 nM
EC50 [16]: 220 nM
EC50 [17]: 144 nM
EC50 [18]: 380 nM
EC50 [19]: 9 nM
EC50 [20]: 27 nM
EC50 [21]: 2600 nM
EC50 [22]: 12 nM
EC50 [23]: 7 nM
EC50 ([24]; read-out: Mean EC50, α7-5HT3, HEK cells, Table 1): 53 nM
EC50 [25]: 27 nM
EC50 [26]: 144 nM
EC50 ([27]; α7GlyR Q79G A298G G175K Y115F; read-out: Agonist potency): 11 nM
EC50 ([27]; α7GlyR Q79G A298G P2161; read-out: Agonist potency): 50 nM
EC50 ([27]; α7GlyR Q79G A298G Y115F K395 K396A; read-out: Agonist potency): 150 nM
EC50 ([27]; α7GlyR Q79G G175K A298G; read-out: Agonist potency): 2.3 nM
EC50 ([27]; α7GlyR Q79G W77F A298G; read-out: Agonist potency): 370 nM
EC50 [28]: 36 nM

O=C(NC1CN2CCC1CC2)c1ccc(Cl)cc1 (stereo not drawn) [PNU-282987]
EC50 [1]: 54 nM
EC50 [3]: 60 nM
EC50 [4]: 700 nM
EC50 [5]: 33 nM
EC50 [6]: > 1000 nM
EC50 [7]: 64 nM
EC50 [8]: 26 nM
EC50 [9]: 23 nM
EC50 [10]: 410 nM
EC50 [11]: 340 nM
EC50 [12]: 37 nM
EC50 [13]: 21 nM
EC50 [14]: 5 nM
EC50 [15]: 14 nM
EC50 [16]: 80 nM
EC50 [17]: 50 nM
EC50 [18]: > 40000 nM
EC50 [19]: 34 nM
EC50 [20]: 55 nM
EC50 [21]: 500 nM
EC50 [22]: 63 nM
EC50 [23]: 6 nM
EC50 ([24]; read-out: Mean EC50, α7-5HT3): 220 nM
EC50 ([24]; read-out: α7-5HT3 EC50): 220 nM
EC50 [25]: 48 nM
EC50 [26]: 510 nM
EC50 [27, 29]: 9 nM
EC50 [27, 30]: 250 nM
EC50 [27, 31]: 110 nM
EC50 [27, 32]: 0.36 nM
EC50 [27, 33]: 1630 nM
EC50 [28]: 100 nM

O=c1cccc2n1C[C@@H]1CNC[C@H]2C1 [Cytisine]
EC50 [1]: 30000 nM
EC50 [2]: > 30000 nM
EC50 [3]: 2500 nM
EC50 [4]: > 10000 nM
EC50 [5]: 11000 nM
EC50 [6]: > 30000 nM
EC50 [7]: 4300 nM
EC50 [8]: 5600 nM
EC50 [9]: 4400 nM
EC50 [10]: > 30000 nM
EC50 [11]: > 30000 nM
EC50 [12]: 4000 nM
EC50 [13]: 7000 nM
EC50 [14]: 400 nM
EC50 [15]: 2500 nM
EC50 [16]: > 10000 nM
EC50 [17]: 3240 nM
EC50 [18]: 5100 nM
EC50 [19]: 13100 nM
EC50 [20]: 20600 nM
EC50 [21]: 6900 nM
EC50 [22]: 12000 nM
EC50 [23]: 8100 nM
EC50 ([24]; read-out: Mean EC50, α7-5HT3): 8200 nM
EC50 [25]: > 30000 nM
EC50 [26]: 4740 nM
EC50 [27, 29]: 4600 nM
EC50 [27, 30]: 5500 nM
EC50 [27, 31]: > 30000 nM
EC50 [27, 32]: 134 nM
EC50 [27, 33]: 14100 nM
EC50 [28]: 7100 nM
